According to patent publication US20170022171A1, “2,5-DISUBSTITUTED CYCLOPENTANECARBOXYLIC ACIDS AND THEIR USE” (Bayer Pharma Aktiengesellschaft, priority 2014, published 2017):

How the values were obtained:
rat hepatocytes = test: Hepatocyte assay for determination of metabolic stability; type: in vitro ADME; conditions: after incubation with rat hepatocytes
Procedure: The metabolic stability of test compounds towards hepatocytes is determined by incubating the compounds at low concentrations (preferably below or around 1 μM) and at low cell counts (preferably at 1*10^6 cells/ml) in order to ensure maximum linearity of kinetic conditions in the experiment. Seven samples from the incubation solution are taken for the LC-MS analysis within a fixed time pattern, in order to determine the half-life (i.e. the degradation) of the particular compound. This half life is used to calculate various “Clearance” parameters (CL) and “Fmax” values (see below).
The CL and Fmax values are a measure of the phase 1 and phase 2 metabolism of the compounds in the hepatocytes. In order to minimize the influence of the organic solvent on the enzymes in the incubation batches, the concentration thereof is generally limited to 1% (acetonitrile) or 0.1% (DMSO).
For all species and breeds, a hepatocyte cell count in the liver of 1.1*10^8 cells/g of liver is expected.
The parameters calculated and the meanings thereof are: • Fmax well-stirred [%] maximum possible bioavailability after oral administration • Calculation: (1−CLblood well-stirred/QH)*100 • CLblood well-stirred [L/(h*kg)] calculated blood clearance (well-stirred model) • Calculation: (QH*CL′intrinsic)/(QH+CL′intrinsic) • CL′intrinsic[ml/(min*kg)] maximum ability of the liver (of the hepatocytes) to metabolize a compound (assuming that the liver blood flow is not rate-limiting) • Calculation: CL′intrinsic, apparent*species-specific hepatocyte count [1.1*10^8/g liver]*species-specific liver weight [g/kg] • CL′intrinsic, apparent[ml/(min*mg)] normalizes the elimination constant by dividing it by the hepatocyte cell count x used (x*10^6/ml) • Calculation: ke1[1/min]/(cell count [x*10^6]/incubation volume [ml]) • (QH=species-specific liver blood flow).

[1] = target: T1, human macrophage elastase (HME/hMMP-12) (Homo sapiens, UniProt P39900); test: In vitro HME inhibition test (standard or high-sensitivity); type: biochemical; conditions: in some cases mean values
T1 construct: 0.5 nM HME; purchased R&D Systems 917-MP
Summary of the method: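 Fluorogenic assay: 0.5 nM autoactivated HME with 5 µM Mca-Pro-Leu-Gly-Leu-Glu-Glu-Ala-Dap(Dnp)-NH2 in HEPES pH 7.4 buffer (NaCl, CaCl2, ZnCl2, EDTA, Brij), 2 h at 37 °C; ex 323/em 393 nm. IC50 from fluorescence versus concentration. High-sensitivity format: ~0.05 nM enzyme, ~16 h incubation.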

T1 sequence (P39900 106-470): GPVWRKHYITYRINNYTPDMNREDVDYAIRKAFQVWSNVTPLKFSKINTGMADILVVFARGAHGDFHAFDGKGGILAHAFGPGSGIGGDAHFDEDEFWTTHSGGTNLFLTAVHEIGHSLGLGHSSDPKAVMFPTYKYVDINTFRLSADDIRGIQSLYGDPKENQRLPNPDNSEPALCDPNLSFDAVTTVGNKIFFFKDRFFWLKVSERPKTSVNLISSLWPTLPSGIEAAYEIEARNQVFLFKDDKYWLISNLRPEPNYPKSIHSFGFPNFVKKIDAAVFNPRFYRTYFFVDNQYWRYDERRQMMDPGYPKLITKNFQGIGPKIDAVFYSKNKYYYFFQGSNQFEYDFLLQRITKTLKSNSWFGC

| Molecule | CLblood (calculated blood clearance, well-stirred) (rat hepatocytes) [mL/min/kg] | Fmax (maximum possible bioavailability after oral administration, well-stirred) (rat hepatocytes) [%] | IC50 [1] [nM] |
| --- | --- | --- | --- |
| Cc1ccc2nnn(C[C@H]3CC[C@@H](C(=O)c4ccc(OCc5ccccc5)cc4)[C@@H]3C(=O)O)c(=O)c2c1 (racemic) [Example 92, (+)-(1RS,2RS,5SR)-2-[4-(Benzyloxy)benzoyl]-5-[(6-methyl-4-oxo-1,2,3-benzotriazin-3(4H)-yl)methyl]cyclopentanecarboxylic acid] | 16.8 | 76.1 | – |
| Cc1ccc2nnn(C[C@H]3CC[C@@H](C(=O)c4ccc(OCc5ccc(F)cc5)cc4)[C@@H]3C(=O)O)c(=O)c2c1 (racemic) [Example 95, (+)-(1RS,2RS,5SR)-2-{4-[(4-Fluorobenzyl)oxy]benzoyl}-5-[(6-methyl-4-oxo-1,2,3-benzotriazin-3(4H)-yl)methyl]cyclopentanecarboxylic acid] | 8.33 | 88.2 | – |
| Cc1ccc2nnn(C[C@H]3CC[C@@H](C(=O)c4ccc(OCc5cccc(C(F)(F)F)c5)cc4)[C@@H]3C(=O)O)c(=O)c2c1 (racemic) [Example 101, (+)-(1RS,2SR,5RS)-2-[(6-Methyl-4-oxo-1,2,3-benzotriazin-3(4H)-yl)methyl]-5-(4-{[3-(trifluoromethyl)benzyl]oxy}benzoyl)cyclopentanecarboxylic acid] | 1.5 | 97.8 | – |
| Cc1ccc2nnn(C[C@H]3CC[C@@H](C(=O)c4ccc(OCc5cccc(Cl)c5)cc4)[C@@H]3C(=O)O)c(=O)c2c1 (racemic) [Example 104, (+)-(1RS,2RS,5SR)-2-{4-[(3-Chlorobenzyl)oxy]benzoyl}-5-[(6-methyl-4-oxo-1,2,3-benzotriazin-3(4H)-yl)methyl]cyclopentanecarboxylic acid] | 16.5 | 76.3 | – |
| Cc1ccc2nnn(C[C@H]3CC[C@@H](C(=O)c4ccc(OCc5cccc(OC(F)(F)F)c5)cc4)[C@@H]3C(=O)O)c(=O)c2c1 (racemic) [Example 110, (+)-(1RS,2SR,5RS)-2-[(6-Methyl-4-oxo-1,2,3-benzotriazin-3(4H)-yl)methyl]-5-(4-{[3-(trifluoromethoxy)benzyl]oxy}benzoyl)cyclopentanecarboxylic acid] | 6.67 | 90.4 | – |
| COc1cccc(COc2ccc(C(=O)[C@@H]3CC[C@H](Cn4nnc5ccc(C)cc5c4=O)[C@H]3C(=O)O)cc2)c1 (single isomer, unassigned) [Example 108, (−)-(1RS,2RS,5SR)-2-{4-[(3-Methoxybenzyl)oxy]benzoyl}-5-[(6-methyl-4-oxo-1,2,3-benzotriazin-3(4H)-yl)methyl]cyclopentanecarboxylic acid] | – | – | 470 |
| Cc1ccc2nnn(C[C@H]3CC[C@@H](C(=O)c4ccc(OCc5cccc(OC(F)(F)F)c5)cc4)[C@@H]3C(=O)O)c(=O)c2c1 (single isomer, unassigned) [Example 111, (−)-(1RS,2SR,5RS)-2-[(6-Methyl-4-oxo-1,2,3-benzotriazin-3(4H)-yl)methyl]-5-(4-{[3-(trifluoromethoxy)benzyl]oxy}benzoyl)cyclopentanecarboxylic acid] | – | – | 140 |
| Cc1ccc2nnn(C[C@H]3CC[C@@H](C(=O)c4ccc(OCCc5ccccc5)cc4)[C@@H]3C(=O)O)c(=O)c2c1 (single isomer, unassigned) [Example 114, (−)-(1RS,2SR,5RS)-2-[(6-Methyl-4-oxo-1,2,3-benzotriazin-3(4H)-yl)methyl]-5-[4-(2-phenylethoxy)benzoyl]cyclopentanecarboxylic acid] | – | – | 110 |
| Cc1ccc2nnn(C[C@H]3CC[C@@H](C(=O)c4ccc(OCC5CCCCC5)cc4)[C@@H]3C(=O)O)c(=O)c2c1 (single isomer, unassigned) [Example 118, (−)-(1RS,2RS,5SR)-2-[4-(Cyclohexylmethoxy)benzoyl]-5-[(6-methyl-4-oxo-1,2,3-benzotriazin-3(4H)-yl)methyl]cyclopentanecarboxylic acid] | – | – | 150 |
| CCCCCCOc1ccc(C(=O)[C@@H]2CC[C@H](Cn3nnc4ccc(C)cc4c3=O)[C@H]2C(=O)O)cc1 (single isomer, unassigned) [Example 122, (−)-(1RS,2RS,5SR)-2-[4-(Hexyloxy)benzoyl]-5-[(6-methyl-4-oxo-1,2,3-benzotriazin-3(4H)-yl)methyl]cyclopentanecarboxylic acid] | – | – | 190 |
| (−)-(1RS,2SR,5RS)-2-{[4-Oxo-6-(trifluoromethyl)-1,2,3-benzotriazin-3(4H)-yl]methyl}-5-{4-[(2-phenylethy)sulphanyl]benzoyl}cyclopentanecarboxylic acid [Example 84] | – | – | 33 |

Further lines, results first:

| CLblood (calculated blood clearance, well-stirred) (rat hepatocytes) [mL/min/kg] | Fmax (maximum possible bioavailability after oral administration, well-stirred) (rat hepatocytes) [%] | IC50 [1] [nM] | Molecule |
| --- | --- | --- | --- |
| – | – | 0.24 | Cc1ccc2nnn(C[C@H]3CC[C@@H](C(=O)c4ccc(OCCc5ccccc5)cc4)[C@@H]3C(=O)O)c(=O)c2c1 (single isomer, unassigned) [Example 113, (+)-(1RS,2SR,5RS)-2-[(6-Methyl-4-oxo-1,2,3-benzotriazin-3(4H)-yl)methyl]-5-[4-(2-phenylethoxy)benzoyl]cyclopentanecarboxylic acid] |
| – | – | 0.062 | CCCCCOc1ccc(C(=O)[C@@H]2CC[C@H](Cn3nnc4ccc(C)cc4c3=O)[C@H]2C(=O)O)cc1 (single isomer, unassigned) [Example 124, (+)-(1RS,2SR,5RS)-2-[(6-Methyl-4-oxo-1,2,3-benzotriazin-3(4H)-yl)methyl]-5-[4-(pentyloxy)benzoyl]cyclopentanecarboxylic acid] |
| – | – | 6.7 | CCCCCOc1ccc(C(=O)[C@@H]2CC[C@H](Cn3nnc4ccc(C)cc4c3=O)[C@H]2C(=O)O)cc1 (single isomer, unassigned) [Example 125, (−)-(1RS,2SR,5RS)-2-[(6-Methyl-4-oxo-1,2,3-benzotriazin-3(4H)-yl)methyl]-5-[4-(pentyloxy)benzoyl]cyclopentanecarboxylic acid] |
| – | – | 0.037 | COC(=O)Nc1cccc(COc2ccc(C(=O)[C@H]3CC[C@@H](Cn4nnc5ccc(C(F)(F)F)cc5c4=O)[C@@H]3C(=O)O)cc2)c1 (stereo in doubt) [Example 30, (+/−)-(1RS,2RS,5SR)-2-{4-({3-[(Methoxycarbonyl)amino]benzyl}oxy)benzoyl}-5-{[4-oxo-6-(trifluoromethyl)-1,2,3-benzotriazin-3(4H)-yl]methyl}cyclopentanecarboxylic acid] |
| – | – | 4.1 | (−)-(1RS,2RS,5SR)-2-{4-[(3,4-Dichlorobenzyl)oxy]benzoyl}-5-{[4-oxo-6-(trifluoromethyl)-1,2,3-benzotriazin-3(4H)-yl]methyl}cyclopentanecarboxylic acid [Example 29] |
| – | – | 8.3 | (−)-(1RS,2RS,5SR)-2-{4-[Cyclohexyl)methyl)sulphanyl]benzoyl}-5-{[4-oxo-6-(trifluoromethyl)-1,2,3-benzotriazin-3(4H)-yl]methyl}cyclopentanecarboxylic acid [Example 87] |
